Test results published in paper PMC11124822, “Discovery and Anticancer Screening of Novel Oxindole-Based Derivative Bearing Pyridyl Group as Potent and Selective Dual FLT3/CDK2 Kinase Inhibitor” (Pharmaceuticals, 2024).

Assays:
HL-60(TB) = test: NCI-60 antiproliferative screen (SRB); assay type: cell-based, human; settings: Homo sapiens; 10 µM single dose, 48 h; HL-60(TB) (Leukemia); read-out: Growth inhibition (%)
K-562 = test: NCI-60 antiproliferative screen (SRB); assay type: cell-based, human; settings: Homo sapiens, K562; 10 µM single dose, 48 h; K-562 (Leukemia); read-out: Growth inhibition (%)
MOLT-4 = test: NCI-60 antiproliferative screen (SRB); assay type: cell-based; settings: Homo sapiens; 10 µM single dose, 48 h; MOLT-4 (Leukemia); read-out: Growth inhibition (%)
RPMI-8226 = test: NCI-60 antiproliferative screen (SRB); assay type: cell-based, human; settings: Homo sapiens; 10 µM single dose, 48 h; RPMI-8226 (Leukemia); read-out: Growth inhibition (%)
A549/ATCC = test: NCI-60 antiproliferative screen (SRB); assay type: cell-based, human; settings: Homo sapiens; 10 µM single dose, 48 h; A549/ATCC (NSCLC); read-out: Growth inhibition (%)
HOP-62 = test: NCI-60 antiproliferative screen (SRB); assay type: cell-based, human; settings: Homo sapiens; 10 µM single dose, 48 h; HOP-62 (NSCLC); read-out: Growth inhibition (%)
HOP-92 = test: NCI-60 antiproliferative screen (SRB); assay type: cell-based, human; settings: Homo sapiens; 10 µM single dose, 48 h; HOP-92 (NSCLC); read-out: Growth inhibition (%)
NCI-H322M = test: NCI-60 antiproliferative screen (SRB); assay type: cell-based, human; settings: Homo sapiens; 10 µM single dose, 48 h; NCI-H322M (NSCLC); read-out: Growth inhibition (%)
COLO 205 = test: NCI-60 antiproliferative screen (SRB); assay type: cell-based, human; settings: Homo sapiens; 10 µM single dose, 48 h; COLO 205 (Colon); read-out: Growth inhibition (%)
HCC-2998 = test: NCI-60 antiproliferative screen (SRB); assay type: cell-based, human; settings: Homo sapiens; 10 µM single dose, 48 h; HCC-2998 (Colon); read-out: Growth inhibition (%)
HT29 = test: NCI-60 antiproliferative screen (SRB); assay type: cell-based, human; settings: Homo sapiens, HT-29; 10 µM single dose, 48 h; HT29 (Colon); read-out: Growth inhibition (%)
KM12 = test: NCI-60 antiproliferative screen (SRB); assay type: cell-based, human; settings: Homo sapiens; 10 µM single dose, 48 h; KM12 (Colon); read-out: Growth inhibition (%)
SW-620 = test: NCI-60 antiproliferative screen (SRB); assay type: cell-based, human; settings: Homo sapiens; 10 µM single dose, 48 h; SW-620 (Colon); read-out: Growth inhibition (%)
SNB-19 = test: NCI-60 antiproliferative screen (SRB); assay type: cell-based, human; settings: Homo sapiens; 10 µM single dose, 48 h; SNB-19 (CNS); read-out: Growth inhibition (%)
U251 = test: NCI-60 antiproliferative screen (SRB); assay type: cell-based, human; settings: Homo sapiens, U-251; 10 µM single dose, 48 h; U251 (CNS); read-out: Growth inhibition (%)
MALME-3M = test: NCI-60 antiproliferative screen (SRB); assay type: cell-based, human; settings: Homo sapiens; 10 µM single dose, 48 h; MALME-3M (Melanoma); read-out: Growth inhibition (%)
SK-MEL-2 = test: NCI-60 antiproliferative screen (SRB); assay type: cell-based, human; settings: Homo sapiens; 10 µM single dose, 48 h; SK-MEL-2 (Melanoma); read-out: Growth inhibition (%)
SK-MEL-5 = test: NCI-60 antiproliferative screen (SRB); assay type: cell-based, human; settings: Homo sapiens; 10 µM single dose, 48 h; SK-MEL-5 (Melanoma); read-out: Growth inhibition (%)
OVCAR-3 = test: NCI-60 antiproliferative screen (SRB); assay type: cell-based, human; settings: Homo sapiens; 10 µM single dose, 48 h; OVCAR-3 (Ovarian); read-out: Growth inhibition (%)
A498 = test: NCI-60 antiproliferative screen (SRB); assay type: cell-based, human; settings: Homo sapiens; 10 µM single dose, 48 h; A498 (Renal); read-out: Growth inhibition (%)
RXF 393 = test: NCI-60 antiproliferative screen (SRB); assay type: cell-based, human; settings: Homo sapiens; 10 µM single dose, 48 h; RXF 393 (Renal); read-out: Growth inhibition (%)
TK-10 = test: NCI-60 antiproliferative screen (SRB); assay type: cell-based, human; settings: Homo sapiens; 10 µM single dose, 48 h; TK-10 (Renal); read-out: Growth inhibition (%)
UO-31 = test: NCI-60 antiproliferative screen (SRB); assay type: cell-based, human; settings: Homo sapiens; 10 µM single dose, 48 h; UO-31 (Renal); read-out: Growth inhibition (%)
PC-3 = test: NCI-60 antiproliferative screen (SRB); assay type: cell-based, human; settings: Homo sapiens; 10 µM single dose, 48 h; PC-3 (Prostate); read-out: Growth inhibition (%)
MCF7 = test: NCI-60 antiproliferative screen (SRB); assay type: cell-based, human; settings: Homo sapiens; 10 µM single dose, 48 h; MCF7 (Breast); read-out: Growth inhibition (%)
MDA-MB-231 = test: NCI-60 antiproliferative screen (SRB); assay type: cell-based, human; settings: Homo sapiens; 10 µM single dose, 48 h; MDA-MB-231 (Breast); read-out: Growth inhibition (%)
T-47D = test: NCI-60 antiproliferative screen (SRB); assay type: cell-based, human; settings: Homo sapiens, T47D; 10 µM single dose, 48 h; T-47D (Breast); read-out: Growth inhibition (%)
MDA-MB-468 = test: NCI-60 antiproliferative screen (SRB); assay type: cell-based, human; settings: Homo sapiens; 10 µM single dose, 48 h; MDA-MB-468 (Breast); read-out: Growth inhibition (%)
SR = test: NCI-60 antiproliferative screen (SRB); settings: Homo sapiens, 48 h, read-out: Growth inhibition (%)
SNB-75 = test: NCI-60 antiproliferative screen (SRB); settings: Homo sapiens, SNB-75, 48 h, read-out: Growth inhibition (%)

SMILES: O=C1Nc2ccc(Cl)cc2C1=Cc1ccc(OCc2ccncc2)cc1 (mixture of isomers) [Compound 5o, (E/Z)-5-Chloro-3-[4-(pyridin-4-ylmethoxy)benzylidene] indolin-2-one]
- inhibition at 10 µM (HL-60(TB)): 66.5%
- inhibition at 10 µM (K-562): 72.5%
- inhibition at 10 µM (MOLT-4): 81.2%
- inhibition at 10 µM (RPMI-8226): 70.5%
- inhibition at 10 µM (A549/ATCC): 39.9%
- inhibition at 10 µM (HOP-62): 19.7%
- inhibition at 10 µM (HOP-92): 16.3%
- inhibition at 10 µM (NCI-H322M): 40.6%
- inhibition at 10 µM (COLO 205): 19.2%
- inhibition at 10 µM (HCC-2998): 12.4%
- inhibition at 10 µM (HT29): 39.7%
- inhibition at 10 µM (KM12): 60.6%
- inhibition at 10 µM (SW-620): 48.3%
- inhibition at 10 µM (SNB-19): 73.8%
- inhibition at 10 µM (U251): 66.9%
- inhibition at 10 µM (MALME-3M): 43%
- inhibition at 10 µM (SK-MEL-2): 4.23%
- inhibition at 10 µM (SK-MEL-5): 62.6%
- inhibition at 10 µM (OVCAR-3): 67.4%
- inhibition at 10 µM (A498): 1.01%
- inhibition at 10 µM (RXF 393): 73.8%
- inhibition at 10 µM (TK-10): 17.7%
- inhibition at 10 µM (UO-31): 51.1%
- inhibition at 10 µM (PC-3): 52.4%
- inhibition at 10 µM (MCF7): 92.8%
- inhibition at 10 µM (MDA-MB-231): 24.9%
- inhibition at 10 µM (T-47D): 61%
- inhibition at 10 µM (MDA-MB-468): 44.9%
- melting point: 238 to 240 °C
- inhibition at 10 µM (SR): 88.9%
- inhibition at 10 µM (SNB-75): 21.2%

SMILES: O=C1Nc2cc(Cl)ccc2C1=Cc1ccc(OCc2ccncc2)cc1 (mixture of isomers) [Compound 5p, (E/Z)-6-Chloro-3-[4-(pyridin-4-ylmethoxy)benzylidene]indolin-2-one]
- inhibition at 10 µM (HL-60(TB)): 52.4%
- inhibition at 10 µM (K-562): 59.1%
- inhibition at 10 µM (MOLT-4): 79%
- inhibition at 10 µM (RPMI-8226): 74.9%
- inhibition at 10 µM (A549/ATCC): 27.9%
- inhibition at 10 µM (HOP-62): 21.4%
- inhibition at 10 µM (HOP-92): 49.6%
- inhibition at 10 µM (NCI-H322M): 22.5%
- inhibition at 10 µM (COLO 205): 39.7%
- inhibition at 10 µM (HCC-2998): 20.1%
- inhibition at 10 µM (HT29): 37.8%
- inhibition at 10 µM (KM12): 47.8%
- inhibition at 10 µM (SW-620): 49.5%
- inhibition at 10 µM (SNB-19): 28.7%
- inhibition at 10 µM (U251): 64.4%
- inhibition at 10 µM (MALME-3M): 12.5%
- inhibition at 10 µM (SK-MEL-2): 27.6%
- inhibition at 10 µM (SK-MEL-5): 65%
- inhibition at 10 µM (OVCAR-3): 53%
- inhibition at 10 µM (A498): -1.39%
- inhibition at 10 µM (RXF 393): 67.4%
- inhibition at 10 µM (TK-10): -0.51%
- inhibition at 10 µM (UO-31): 49%
- inhibition at 10 µM (PC-3): 45%
- inhibition at 10 µM (MCF7): 71.6%
- inhibition at 10 µM (MDA-MB-231): 32.7%
- inhibition at 10 µM (T-47D): 67.1%
- inhibition at 10 µM (MDA-MB-468): 65.6%
- melting point: 233 to 235 °C
- inhibition at 10 µM (SR): 72.6%
- inhibition at 10 µM (SNB-75): 14.9%
